PMC9856672, “SGC-CAMKK2-1: A Chemical Probe for CAMKK2” (Cells, 2023)

What was measured:
CAMK1G = target: T1, CAMK1G (Homo sapiens, UniProt Q96NX5); assay: KINOMEscan at 1 μM, CAMK1G; assay type: binding; conditions: 1000 nM, read-out: Percent Control
T1 construct: purchased Eurofins DiscoverX KINOMEscan
Description: (§1) Supplement cells-12-00287-s001.zip/File S2. KinomeScan data for the CAMKK2 probe and negative control.xlsx, sheet "SGC-CAMKK2-1N" | column: Percent Control

DAPK3 = target: T2, DAPK3 (Homo sapiens, UniProt O43293); assay: KINOMEscan at 1 μM, DAPK3; assay type: binding; conditions: 1000 nM, read-out: Percent Control
T2 construct: purchased Eurofins DiscoverX KINOMEscan
T2 sequence (O43293 whole entry): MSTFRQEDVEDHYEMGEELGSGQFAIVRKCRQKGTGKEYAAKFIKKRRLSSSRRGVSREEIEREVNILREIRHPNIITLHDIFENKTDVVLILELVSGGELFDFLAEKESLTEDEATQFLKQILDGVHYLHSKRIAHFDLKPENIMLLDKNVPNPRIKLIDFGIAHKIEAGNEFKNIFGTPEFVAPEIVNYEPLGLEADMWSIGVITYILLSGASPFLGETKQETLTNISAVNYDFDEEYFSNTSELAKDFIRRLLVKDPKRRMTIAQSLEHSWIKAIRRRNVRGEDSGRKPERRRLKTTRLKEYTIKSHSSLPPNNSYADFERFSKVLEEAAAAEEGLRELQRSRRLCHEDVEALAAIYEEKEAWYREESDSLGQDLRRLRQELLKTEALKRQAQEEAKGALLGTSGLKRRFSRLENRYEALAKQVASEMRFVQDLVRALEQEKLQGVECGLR
Description: as §1

EGFR(L861Q) = target: T3, EGFR(L861Q) (Homo sapiens, UniProt P00533, L861Q); assay: KINOMEscan binding assay at 1 μM, EGFR(L861Q); conditions: Compound Concentration 1000 nM; read-out: Percent Control
T3 construct: purchased Eurofins DiscoverX KINOMEscan
Description: as §1

MKK7 = target: T4, MKK7 (Homo sapiens, UniProt O14733); assay: KINOMEscan at 1 μM, MKK7; assay type: binding; conditions: 1000 nM, read-out: Percent Control
T4 construct: purchased Eurofins DiscoverX KINOMEscan
T4 sequence (O14733 whole entry): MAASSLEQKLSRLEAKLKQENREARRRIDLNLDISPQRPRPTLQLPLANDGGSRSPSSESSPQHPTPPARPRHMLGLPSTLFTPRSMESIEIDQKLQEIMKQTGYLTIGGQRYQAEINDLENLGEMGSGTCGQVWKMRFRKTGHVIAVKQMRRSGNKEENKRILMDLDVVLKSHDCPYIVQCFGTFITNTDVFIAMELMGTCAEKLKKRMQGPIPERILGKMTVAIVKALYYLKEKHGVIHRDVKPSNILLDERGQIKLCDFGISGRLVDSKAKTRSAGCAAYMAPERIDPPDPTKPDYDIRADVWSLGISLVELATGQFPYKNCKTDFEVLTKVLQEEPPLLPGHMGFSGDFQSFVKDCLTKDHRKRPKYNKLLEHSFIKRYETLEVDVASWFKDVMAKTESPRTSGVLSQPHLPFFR
Description: as §1

CDK11 = target: T5, CDK11 (Homo sapiens, UniProt Q9BWU1); assay: KINOMEscan at 1 μM, CDK11; assay type: binding; conditions: 1000 nM, read-out: Percent Control
T5 construct: purchased Eurofins DiscoverX KINOMEscan
Description: as §1

p38-alpha = target: T6, p38-alpha (Homo sapiens, UniProt Q16539); assay: KINOMEscan at 1 μM, p38-alpha; assay type: binding; conditions: 1000 nM, read-out: Percent Control
T6 construct: purchased Eurofins DiscoverX KINOMEscan
Description: as §1

LATS1 = target: T7, LATS1 (Homo sapiens, UniProt O95835); assay: KINOMEscan at 1 μM, LATS1; assay type: binding; conditions: 1000 nM, read-out: Percent Control
T7 construct: purchased Eurofins DiscoverX KINOMEscan
Description: as §1

PKN1 = target: T8, PKN1 (Homo sapiens, UniProt Q16512); assay: KINOMEscan binding assay at 1 μM, PKN1; conditions: Compound Concentration 1000 nM; read-out: Percent Control
T8 construct: purchased Eurofins DiscoverX KINOMEscan
Description: as §1

PIK3CA(M1043I) = target: T9, PIK3CA(M1043I) (Homo sapiens, UniProt P42336, M1043I); assay: KINOMEscan binding assay at 1 μM, PIK3CA(M1043I); conditions: Compound Concentration 1000 nM; read-out: Percent Control
T9 construct: purchased Eurofins DiscoverX KINOMEscan
Description: as §1

CSNK1A1L = target: T10, CSNK1A1L (Homo sapiens, UniProt Q8N752); assay: KINOMEscan at 1 μM, CSNK1A1L; assay type: binding; conditions: 1000 nM, read-out: Percent Control
T10 construct: purchased Eurofins DiscoverX KINOMEscan
Description: as §1

PAK7 = target: T11, PAK7 (Homo sapiens, UniProt Q9P286); assay: KINOMEscan at 1 μM, PAK7; assay type: binding; conditions: 1000 nM, read-out: Percent Control
T11 construct: purchased Eurofins DiscoverX KINOMEscan
T11 sequence (Q9P286 whole entry): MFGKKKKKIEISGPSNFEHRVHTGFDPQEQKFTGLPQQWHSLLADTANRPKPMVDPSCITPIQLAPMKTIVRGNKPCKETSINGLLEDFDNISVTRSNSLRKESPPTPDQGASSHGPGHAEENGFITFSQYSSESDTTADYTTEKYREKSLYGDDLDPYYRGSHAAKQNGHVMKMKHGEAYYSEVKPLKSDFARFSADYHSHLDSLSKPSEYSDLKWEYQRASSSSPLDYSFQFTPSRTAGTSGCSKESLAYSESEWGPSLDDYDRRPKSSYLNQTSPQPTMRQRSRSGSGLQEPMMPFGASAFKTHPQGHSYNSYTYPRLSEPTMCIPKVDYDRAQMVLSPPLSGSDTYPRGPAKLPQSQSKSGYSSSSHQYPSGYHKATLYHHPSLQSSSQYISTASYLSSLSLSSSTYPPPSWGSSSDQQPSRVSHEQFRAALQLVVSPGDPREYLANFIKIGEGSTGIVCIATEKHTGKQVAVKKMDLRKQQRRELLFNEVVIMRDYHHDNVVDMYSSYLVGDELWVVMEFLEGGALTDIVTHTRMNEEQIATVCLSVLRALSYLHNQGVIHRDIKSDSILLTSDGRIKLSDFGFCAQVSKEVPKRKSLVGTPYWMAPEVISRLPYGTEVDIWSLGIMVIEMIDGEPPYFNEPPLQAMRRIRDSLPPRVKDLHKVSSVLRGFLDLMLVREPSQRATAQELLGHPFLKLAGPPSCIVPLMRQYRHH
Description: as §1

PIP5K1A = target: T12, PIP5K1A (Homo sapiens, UniProt Q99755); assay: KINOMEscan at 1 μM, PIP5K1A; assay type: binding; conditions: 1000 nM, read-out: Percent Control
T12 construct: purchased Eurofins DiscoverX KINOMEscan
Description: as §1

CHEK2 = target: T13, CHEK2 (Homo sapiens, UniProt O96017); assay: KINOMEscan at 1 μM, CHEK2; assay type: binding; conditions: 1000 nM, read-out: Percent Control
T13 construct: purchased Eurofins DiscoverX KINOMEscan
Description: as §1

CSNK1G1 = target: T14, CSNK1G1 (Homo sapiens, UniProt Q9HCP0); assay: KINOMEscan at 1 μM, CSNK1G1; assay type: binding; conditions: 1000 nM, read-out: Percent Control
T14 construct: purchased Eurofins DiscoverX KINOMEscan
T14 sequence (Q9HCP0 whole entry): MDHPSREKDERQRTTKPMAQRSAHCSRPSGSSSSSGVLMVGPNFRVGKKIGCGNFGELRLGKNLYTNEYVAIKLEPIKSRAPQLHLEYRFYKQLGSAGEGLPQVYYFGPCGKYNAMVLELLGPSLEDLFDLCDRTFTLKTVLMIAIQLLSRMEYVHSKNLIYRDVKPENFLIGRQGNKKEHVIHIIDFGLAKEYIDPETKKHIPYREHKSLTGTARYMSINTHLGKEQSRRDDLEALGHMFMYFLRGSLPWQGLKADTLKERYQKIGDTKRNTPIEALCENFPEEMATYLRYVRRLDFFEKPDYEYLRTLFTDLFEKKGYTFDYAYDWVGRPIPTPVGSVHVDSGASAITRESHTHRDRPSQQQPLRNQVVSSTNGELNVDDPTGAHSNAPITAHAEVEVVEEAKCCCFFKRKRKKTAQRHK
Description: as §1

FAK = target: T15, FAK (Homo sapiens, UniProt Q05397); assay: KINOMEscan at 1 μM, FAK; assay type: binding; conditions: 1000 nM, read-out: Percent Control
T15 construct: purchased Eurofins DiscoverX KINOMEscan
T15 sequence (Q05397 whole entry): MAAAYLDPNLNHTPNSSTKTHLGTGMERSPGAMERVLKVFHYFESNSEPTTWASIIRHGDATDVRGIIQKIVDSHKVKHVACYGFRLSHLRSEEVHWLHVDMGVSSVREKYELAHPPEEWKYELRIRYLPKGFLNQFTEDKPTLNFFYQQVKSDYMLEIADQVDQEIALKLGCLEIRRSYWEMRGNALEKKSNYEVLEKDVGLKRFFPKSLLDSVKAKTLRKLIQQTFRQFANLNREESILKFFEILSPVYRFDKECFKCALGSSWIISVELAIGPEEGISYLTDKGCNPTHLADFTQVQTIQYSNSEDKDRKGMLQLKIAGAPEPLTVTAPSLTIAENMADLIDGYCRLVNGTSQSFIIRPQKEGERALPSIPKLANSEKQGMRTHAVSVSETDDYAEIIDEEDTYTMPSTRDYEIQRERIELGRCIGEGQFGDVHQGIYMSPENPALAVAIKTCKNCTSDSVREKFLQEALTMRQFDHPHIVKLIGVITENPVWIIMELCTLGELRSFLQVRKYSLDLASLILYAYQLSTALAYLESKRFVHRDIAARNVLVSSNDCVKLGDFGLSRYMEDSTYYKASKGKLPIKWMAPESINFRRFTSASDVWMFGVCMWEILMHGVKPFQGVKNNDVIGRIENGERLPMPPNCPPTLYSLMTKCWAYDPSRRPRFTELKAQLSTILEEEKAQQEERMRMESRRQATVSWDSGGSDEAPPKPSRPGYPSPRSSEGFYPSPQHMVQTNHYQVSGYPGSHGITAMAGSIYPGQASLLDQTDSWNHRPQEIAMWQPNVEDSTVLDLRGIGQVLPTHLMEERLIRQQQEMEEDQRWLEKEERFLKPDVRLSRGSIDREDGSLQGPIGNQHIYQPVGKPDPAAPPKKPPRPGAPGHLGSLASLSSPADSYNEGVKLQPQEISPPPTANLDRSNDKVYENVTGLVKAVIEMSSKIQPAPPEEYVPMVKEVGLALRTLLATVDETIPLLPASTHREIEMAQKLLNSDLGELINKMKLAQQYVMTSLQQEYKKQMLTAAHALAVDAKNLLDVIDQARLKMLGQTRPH
Description: as §1

PIK4CB = target: T16, PIK4CB (Homo sapiens, UniProt Q9UBF8); assay: KINOMEscan at 1 μM, PIK4CB; assay type: binding; conditions: 1000 nM, read-out: Percent Control
T16 construct: purchased Eurofins DiscoverX KINOMEscan
Description: as §1

RET(V804M) = target: T17, RET(V804M) (Homo sapiens, UniProt P07949, V804M); assay: KINOMEscan binding assay at 1 μM, RET(V804M); conditions: Compound Concentration 1000 nM; read-out: Percent Control
T17 construct: purchased Eurofins DiscoverX KINOMEscan
Description: as §1

EGFR(E746-A750del) = target: T18, EGFR(E746-A750del) (Homo sapiens, UniProt P00533, DEL746-750); assay: KINOMEscan at 1 μM, EGFR(E746-A750del); assay type: binding; conditions: 1000 nM, read-out: Percent Control
T18 construct: purchased Eurofins DiscoverX KINOMEscan
Description: as §1

TAK1 = target: T19, TAK1 (Homo sapiens, UniProt O43318); assay: KINOMEscan at 1 μM, TAK1; assay type: binding; conditions: 1000 nM, read-out: Percent Control
T19 construct: purchased Eurofins DiscoverX KINOMEscan
Description: as §1

CIT = target: T20, CIT (Homo sapiens, UniProt O14578); assay: KINOMEscan 1 μM, CIT; assay type: binding; conditions: 1000 nM; Entrez CIT; read-out: Percent Control
T20 construct: purchased Eurofins DiscoverX KINOMEscan
Description: (§2) Supplement cells-12-00287-s001.zip/File S2. KinomeScan data for the CAMKK2 probe and negative control.xlsx, sheet "SGC-CAMKK2-1" | column: Percent Control

MEK2 = target: T21, MEK2 (Homo sapiens, UniProt P36507); assay: KINOMEscan 1 μM, MEK2; assay type: binding; conditions: 1000 nM; Entrez MAP2K2; read-out: Percent Control
T21 construct: purchased Eurofins DiscoverX KINOMEscan
Description: as §2

EPHA4 = target: T22, EPHA4 (Homo sapiens, UniProt P54764); assay: KINOMEscan 1 μM, EPHA4; assay type: binding; conditions: 1000 nM; Entrez EPHA4; read-out: Percent Control
T22 construct: purchased Eurofins DiscoverX KINOMEscan
Description: as §2

WEE1 = target: T23, WEE1 (Homo sapiens, UniProt P30291); assay: KINOMEscan 1 μM, WEE1; assay type: binding; conditions: 1000 nM; Entrez WEE1; read-out: Percent Control
T23 construct: purchased Eurofins DiscoverX KINOMEscan
Description: as §2

PLK1 = target: T24, PLK1 (Homo sapiens, UniProt P53350); assay: DiscoverX KINOMEscan binding assay at 1 μM, PLK1; conditions: Compound Concentration 1000 nM, read-out: Percent Control
T24 construct: purchased Eurofins DiscoverX KINOMEscan
Description: as §2

TIE2 = target: T25, TIE2 (Homo sapiens, UniProt Q02763); assay: KINOMEscan 1 μM, TIE2; assay type: binding; conditions: 1000 nM; Entrez TEK; read-out: Percent Control
T25 construct: purchased Eurofins DiscoverX KINOMEscan
Description: as §2

DDR1 = target: T26, DDR1 (Homo sapiens, UniProt Q08345); assay: KINOMEscan 1 μM, DDR1; assay type: binding; conditions: 1000 nM; Entrez DDR1; read-out: Percent Control
T26 construct: purchased Eurofins DiscoverX KINOMEscan
Description: as §2

p38-beta = target: T27, p38-beta (Homo sapiens, UniProt Q15759); assay: KINOMEscan 1 μM, p38-beta; assay type: binding; conditions: 1000 nM; Entrez MAPK11; read-out: Percent Control
T27 construct: purchased Eurofins DiscoverX KINOMEscan
Description: as §2

ERK4 = target: T28, ERK4 (Homo sapiens, UniProt P31152); assay: KINOMEscan 1 μM, ERK4; assay type: binding; conditions: 1000 nM; Entrez MAPK4; read-out: Percent Control
T28 construct: purchased Eurofins DiscoverX KINOMEscan
T28 sequence (P31152 whole entry): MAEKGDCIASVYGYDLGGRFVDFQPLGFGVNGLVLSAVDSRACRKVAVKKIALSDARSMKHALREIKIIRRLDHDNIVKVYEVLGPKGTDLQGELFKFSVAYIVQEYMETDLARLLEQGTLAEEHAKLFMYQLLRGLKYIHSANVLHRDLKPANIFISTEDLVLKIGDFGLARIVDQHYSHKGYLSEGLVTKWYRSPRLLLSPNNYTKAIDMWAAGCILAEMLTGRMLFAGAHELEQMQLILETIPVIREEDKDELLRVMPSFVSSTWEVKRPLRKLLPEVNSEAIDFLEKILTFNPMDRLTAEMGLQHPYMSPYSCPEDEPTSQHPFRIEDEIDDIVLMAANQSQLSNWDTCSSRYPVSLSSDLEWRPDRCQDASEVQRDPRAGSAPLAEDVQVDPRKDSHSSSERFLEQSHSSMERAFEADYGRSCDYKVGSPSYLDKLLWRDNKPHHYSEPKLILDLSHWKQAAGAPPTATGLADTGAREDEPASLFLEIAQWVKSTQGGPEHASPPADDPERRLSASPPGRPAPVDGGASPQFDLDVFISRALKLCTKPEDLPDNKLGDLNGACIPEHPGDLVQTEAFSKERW
Description: as §2

ALK(C1156Y) = target: T29, ALK(C1156Y) (Homo sapiens, UniProt Q9UM73, C1156Y); assay: KINOMEscan 1 μM, ALK(C1156Y); assay type: binding; conditions: 1000 nM; Entrez ALK; read-out: Percent Control
T29 construct: purchased Eurofins DiscoverX KINOMEscan
Description: as §2

FLT3(D835Y) = target: T30, FLT3(D835Y) (Homo sapiens, UniProt P36888, D835Y); assay: KINOMEscan 1 μM, FLT3(D835Y); assay type: binding; conditions: 1000 nM; Entrez FLT3; read-out: Percent Control
T30 construct: purchased Eurofins DiscoverX KINOMEscan
Description: as §2

RAF1 = target: T31, RAF1 (Homo sapiens, UniProt P04049); assay: DiscoverX KINOMEscan binding assay at 1 μM, RAF1; conditions: Compound Concentration 1000 nM, read-out: Percent Control
T31 construct: purchased Eurofins DiscoverX KINOMEscan
T31 sequence (P04049 whole entry): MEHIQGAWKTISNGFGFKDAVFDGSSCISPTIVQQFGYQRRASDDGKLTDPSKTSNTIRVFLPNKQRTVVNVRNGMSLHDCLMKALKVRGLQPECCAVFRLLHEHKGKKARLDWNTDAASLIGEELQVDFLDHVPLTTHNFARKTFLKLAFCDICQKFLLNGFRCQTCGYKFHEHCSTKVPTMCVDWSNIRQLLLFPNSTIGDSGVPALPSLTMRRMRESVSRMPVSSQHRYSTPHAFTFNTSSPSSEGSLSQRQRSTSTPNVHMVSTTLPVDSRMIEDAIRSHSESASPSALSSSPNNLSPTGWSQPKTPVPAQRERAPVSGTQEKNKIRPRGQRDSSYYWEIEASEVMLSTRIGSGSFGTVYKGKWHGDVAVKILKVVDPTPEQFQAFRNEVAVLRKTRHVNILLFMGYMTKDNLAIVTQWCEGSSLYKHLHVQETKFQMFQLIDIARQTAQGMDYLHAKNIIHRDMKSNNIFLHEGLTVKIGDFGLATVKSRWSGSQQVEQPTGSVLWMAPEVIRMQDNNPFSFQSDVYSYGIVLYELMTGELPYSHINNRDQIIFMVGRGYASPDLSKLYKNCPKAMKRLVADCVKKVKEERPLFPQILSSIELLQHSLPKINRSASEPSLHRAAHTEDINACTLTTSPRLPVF
Description: as §2

WNK4 = target: T32, WNK4 (Homo sapiens, UniProt Q96J92); assay: DiscoverX KINOMEscan binding assay at 1 μM, WNK4; conditions: Compound Concentration 1000 nM, read-out: Percent Control
T32 construct: purchased Eurofins DiscoverX KINOMEscan
Description: as §2

GRK3 = target: T33, GRK3 (Homo sapiens, UniProt P35626); assay: KINOMEscan 1 μM, GRK3; assay type: binding; conditions: 1000 nM; Entrez ADRBK2; read-out: Percent Control
T33 construct: purchased Eurofins DiscoverX KINOMEscan
Description: as §2

CDK4-cyclinD1 = target: T34, CDK4-cyclinD1 (Homo sapiens, UniProt P11802); assay: KINOMEscan 1 μM, CDK4-cyclinD1; assay type: binding; conditions: 1000 nM; Entrez CDK4; read-out: Percent Control
T34 construct: purchased Eurofins DiscoverX KINOMEscan
T34 sequence (P11802 whole entry): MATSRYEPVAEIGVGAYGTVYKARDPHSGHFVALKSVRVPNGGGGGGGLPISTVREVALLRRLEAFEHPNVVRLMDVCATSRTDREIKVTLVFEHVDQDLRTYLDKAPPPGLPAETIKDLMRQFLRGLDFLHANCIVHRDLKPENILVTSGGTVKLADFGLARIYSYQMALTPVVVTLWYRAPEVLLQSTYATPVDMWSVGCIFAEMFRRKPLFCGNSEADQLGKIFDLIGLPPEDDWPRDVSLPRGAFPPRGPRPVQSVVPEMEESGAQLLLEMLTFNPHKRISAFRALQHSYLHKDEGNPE
T34 sequence (P24385 whole entry partner): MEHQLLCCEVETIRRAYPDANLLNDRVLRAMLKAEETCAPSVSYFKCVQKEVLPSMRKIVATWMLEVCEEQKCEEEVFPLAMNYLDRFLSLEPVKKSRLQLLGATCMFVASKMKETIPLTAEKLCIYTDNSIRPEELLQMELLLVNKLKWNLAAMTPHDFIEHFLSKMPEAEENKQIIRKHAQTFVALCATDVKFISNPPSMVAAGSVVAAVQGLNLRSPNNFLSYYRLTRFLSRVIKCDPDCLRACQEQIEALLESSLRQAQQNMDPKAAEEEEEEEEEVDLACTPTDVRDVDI
Description: as §2

O=C(O)c1ccc(-c2coc3ncc(-c4ccccc4)cc23)cc1Cl [SGC-CAMKK2-1N (UNC-YL-83)] showed a remaining binding at 1 µM (CAMK1G) of 86%, a remaining binding at 1 µM (DAPK3) of 71% and a remaining binding at 1 µM (EGFR(L861Q)) of 100%. The remaining binding at 1 µM (MKK7) was 82%, the remaining binding at 1 µM (CDK11) was 56% and the remaining binding at 1 µM (p38-alpha) was 79%. For the same molecule, the remaining binding at 1 µM (LATS1) was 83%, the remaining binding at 1 µM (PKN1) was 100% and the remaining binding at 1 µM (PIK3CA(M1043I)) was 100%. For the same molecule, the remaining binding at 1 µM (CSNK1A1L) was 99%, the remaining binding at 1 µM (PAK7) was 84% and the remaining binding at 1 µM (PIP5K1A) was 87%. It also gave a remaining binding at 1 µM (CHEK2) of 100%, a remaining binding at 1 µM (CSNK1G1) of 95% and a remaining binding at 1 µM (FAK) of 96%. It also gave a remaining binding at 1 µM (PIK4CB) of 54%, a remaining binding at 1 µM (RET(V804M)) of 100% and a remaining binding at 1 µM (EGFR(E746-A750del)) of 100%. It also gave a remaining binding at 1 µM (TAK1) of 62%.
Cc1cccc(-c2cnc3occ(-c4ccc(C(=O)O)c(C5CCCC5)c4)c3c2)c1 [SGC-CAMKK2-1 (YL-36)] showed a remaining binding at 1 µM (CIT) of 100%, a remaining binding at 1 µM (MEK2) of 100% and a remaining binding at 1 µM (EPHA4) of 90%. For the same molecule, the remaining binding at 1 µM (WEE1) was 82%, the remaining binding at 1 µM (PLK1) was 100% and the remaining binding at 1 µM (TIE2) was 97%. The remaining binding at 1 µM (DDR1) was 98%, the remaining binding at 1 µM (p38-beta) was 100% and the remaining binding at 1 µM (ERK4) was 100%. It also gave a remaining binding at 1 µM (ALK(C1156Y)) of 100%, a remaining binding at 1 µM (FLT3(D835Y)) of 89% and a remaining binding at 1 µM (RAF1) of 100%. The remaining binding at 1 µM (WNK4) was 100%, the remaining binding at 1 µM (GRK3) was 100% and the remaining binding at 1 µM (CDK4-cyclinD1) was 100%.
